Non-standard residues stand in square brackets, D forms with d. Residues, ends and D or L forms follow the SMILES beside them.
Experiments:
[1] = target: T1, hGHRH(1-44)-NH2 binding sites in rat anterior pituitary (Rattus norvegicus, UniProt Q02644); experiment: Relative binding affinity in rat anterior pituitary preparations, [125I-Tyr10]hGHRH(1-44)-NH2 radioligand; conditions: values compared to hGHRH(1-29)-NH2
T1 construct: from tissue; host or cells: anterior pituitary of 2-month old male Sprague Dawley rats
T1 sequence (Q02644 23-423 isoform Q02644-2 limits assumed): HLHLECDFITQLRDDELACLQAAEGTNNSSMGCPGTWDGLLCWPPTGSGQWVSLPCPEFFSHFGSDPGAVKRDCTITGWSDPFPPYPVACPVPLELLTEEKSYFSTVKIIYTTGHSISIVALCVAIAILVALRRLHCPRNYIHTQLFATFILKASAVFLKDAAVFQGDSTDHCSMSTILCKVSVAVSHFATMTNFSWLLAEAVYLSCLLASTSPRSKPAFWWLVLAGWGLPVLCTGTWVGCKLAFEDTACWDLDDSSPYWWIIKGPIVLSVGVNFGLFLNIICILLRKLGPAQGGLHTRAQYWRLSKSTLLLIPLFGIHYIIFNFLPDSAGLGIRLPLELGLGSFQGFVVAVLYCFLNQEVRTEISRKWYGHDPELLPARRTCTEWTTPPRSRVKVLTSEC
Description: Initial selection of a candidate from the original 14 polysubstituted GHRH analogs described in the U.S. Pat. No. 5,854,216 was based upon in vitro data on receptor affinity in 2-month old male Sprague Dawley rat anterior pituitary preparations. The embodiments are based on the affinity of selected GHRH analogs for the human GHRH receptor (hGHRH-R) in baby hamster kidney (BHK) cells transfected with hGHRH-R, and on resistance to proteolysis in rat serum, human plasma or human serum. More precisely, the preferred drug candidates were selected, as compared to hGHRH(1-29)-NH2, for: i-their increased relative binding affinity to hGHRH(1-44)-NH2 binding sites in rat anterior pituitary in vitro as well as to hGHRH-R in BHK-expressing cells in vitro; and ii-their relative resistance to proteolysis in vitro.

[2] = system: Salmonella strains, Chinese Hamster Ovary cells, erythrocyte micronucleus test; experiment: Mutagenicity tests
[3] = system: malnourished subjects with CKD; experiment: Phase II CKD: abnormal and clinically significant haematology values; type: in vivo, human; conditions: for Subjects with abnormal and clinically significant Basophils (%) / Subjects with abnormal and clinically significant Eosinophils (%) / Subjects with abnormal and clinically significant Haematocrit (%) / Subjects with abnormal and clinically significant Haemoglobin (%) / Subjects with abnormal and clinically significant Lymphocytes (%) / Subjects with abnormal and clinically significant MCV (%) / Subjects with abnormal and clinically significant Monocytes (%) / Subjects with abnormal and clinically significant Neutrophils (%) / Subjects with abnormal and clinically significant Platelet count (%) / Subjects with abnormal and clinically significant RBC (%) / Subjects with abnormal and clinically significant WBC (%): safety analysis set
Description: The number of subjects with abnormal and clinically significant laboratory values at baseline and at Day 28 is presented in Table 35 (haematology) and Table 36 clinical chemistry. Overall, the number of subjects with abnormal and clinically significant laboratory values was similar in the GHRH(1-29)NH2 synthetic analog and placebo groups. No clear trends were observed.

[4] = system: antibodies to the GHRH(1-29)NH2 synthetic analog; experiment: Phase I/II study: human anti-GHRH antibodies ELISA; type: in vivo; conditions: Day 30 sample, at the dilution tested
Experimental: On Day 30, an ambulatory control visit took place. Clinical assessments were performed and adverse events were reported. A blood sample was taken to determine the presence of antibodies the GHRH(1-29)NH2 synthetic analog.
Once the volunteers were considered eligible, they were hospitalized for a period of 5 consecutive days. On Day 0 of admission successive samples of blood were taken to perform the basal secretion profile of GH during 24 hours. During 5-day hospitalization period, after the initial blood sampling to determine fasting glucose level, the appropriate dose of the GHRH(1-29)NH2 synthetic analog or placebo was administered and multiple samplings were performed to assess the profile of GH, postprandial glucose level and electrocardiogram after 60 minutes of the application of the GHRH(1-29)NH2 synthetic analog/placebo. Eight hours after drug administration, samples were obtained to determine IGF-1 level, thyroid hormones and routine analysis. After 30 days of admission, all the volunteers returned for new clinical evaluation to record any adverse events that could have occurred from the last day of hospitalization period and to take a blood sample for later determination of anti-GHRH(1-29)NH2 synthetic analog antibodies.
Human anti-GHRH antibodies were measured in ELISA developed LAB Pre-Clinical Research Intl.

## CC[C@H](C)[C@H](NC(=O)[C@H](C)NC(=O)[C@H](CC(=O)O)NC(=O)[C@@H](C)NC(=O)[C@@H](N)Cc1ccc(O)cc1)C(=O)N[C@@H](Cc1ccccc1)C(=O)N[C@H](C(=O)N[C@@H](CC(N)=O)C(=O)N[C@@H](CO)C(=O)N[C@H](Cc1ccc(O)cc1)C(=O)N[C@@H](CCCNC(=N)N)C(=O)N[C@@H](CCCCN)C(=O)N[C@H](C(=O)N[C@@H](CC(C)C)C(=O)N[C@H](C)C(=O)N[C@@H](CCC(N)=O)C(=O)N[C@@H](CC(C)C)C(=O)N[C@@H](CO)C(=O)N[C@@H](C)C(=O)N[C@@H](CCCNC(=N)N)C(=O)N[C@@H](CCCCN)C(=O)N[C@@H](CCCCN)C(=O)N[C@@H](CC(C)C)C(=O)N[C@@H](CCC(N)=O)C(=O)N[C@@H](CC(=O)O)C(=O)N[C@H](C(=O)N[C@@H](CCSC)C(=O)N[C@@H](CO)C(=O)N[C@@H](CCCNC(=N)N)C(N)=O)[C@@H](C)CC)C(C)C)[C@@H](C)O [GHRH analog #5, [D-Ala^2, D-Tyr^10, D-Ala^15, Lys^22] hGHRH(1-29)-NH2] (H-Y[dA]DAIFTNS[dY]RKVL[dA]QLSARKKLQDIMSR-NH2)
[1]
  Relative binding affinity in rat anterior pituitary: 1.04 ± 0.40
[2]
  Clastogenicity: not a clastogenic agent
[2]; Salmonella strains, CHO cells, erythrocyte micronucleus test
  Mutagenicity: no evidence of mutagenicity
[3]; Baseline
  Subjects with abnormal and clinically significant Basophils (%): (0.0%)
  Subjects with abnormal and clinically significant Eosinophils (%): (0.0%)
  Subjects with abnormal and clinically significant Haematocrit (%): (7.7%)
  Subjects with abnormal and clinically significant Haemoglobin (%): (23.1%)
  Subjects with abnormal and clinically significant Lymphocytes (%): (0.0%)
  Subjects with abnormal and clinically significant MCV (%): (0.0%)
  Subjects with abnormal and clinically significant Monocytes (%): (7.7%)
  Subjects with abnormal and clinically significant Neutrophils (%): (7.7%)
  Subjects with abnormal and clinically significant Platelet count (%): (0.0%)
  Subjects with abnormal and clinically significant RBC (%): (7.7%)
  Subjects with abnormal and clinically significant WBC (%): (0.0%)
[3]; Day 28
  Number of subjects with abnormal and clinically significant haematocrit: 4 subjects
  Subjects with abnormal and clinically significant Basophils (%): (0.0%)
  Subjects with abnormal and clinically significant Eosinophils (%): (0.0%)
  Subjects with abnormal and clinically significant Haematocrit (%): (33.3%)
  Subjects with abnormal and clinically significant Haemoglobin (%): (41.7%)
  Subjects with abnormal and clinically significant Lymphocytes (%): (0.0%)
  Subjects with abnormal and clinically significant MCV (%): (0.0%)
  Subjects with abnormal and clinically significant Monocytes (%): (8.3%)
  Subjects with abnormal and clinically significant Neutrophils (%): (16.7%)
  Subjects with abnormal and clinically significant Platelet count (%): (0.0%)
  Subjects with abnormal and clinically significant RBC (%): (25.0%)
  Subjects with abnormal and clinically significant WBC (%): (0.0%)
[3]; baseline
  Number of subjects with abnormal and clinically significant haematocrit: 1 subject
[4]
  Detectable antibodies to the GHRH(1-29)NH2 synthetic analog: None of the subject samples tested had detectable antibodies
